Reference: patent publication US10155021B2, “Antimicrobial 4-oxoquinolizines” (Emergent Product Development Gaithersburg Inc., priority 2011, dated 2018)
Converted amounts (≈) assume the structure as drawn. Read-outs that look alike come from different tables or passages of the source.

What was measured:
E. coli CTX-M-15 = assay: MIC, panel of quinolone-resistant strains (CLSI); type: cell-based; settings: Escherichia coli, CTXM15; CIP R, ESBL
E. coli 2906 = assay: MIC, panel of quinolone-resistant strains (CLSI); type: cell-based; settings: Escherichia coli, CIP R
Pseudomonas ssp PER-1 = assay: MIC, panel of quinolone-resistant strains (CLSI); type: cell-based, Pseudomonas spp; settings: PER1, CIP R, ESBL
P. aeruginosa 1388-3-02 = assay: MIC, panel of quinolone-resistant strains (CLSI); type: cell-based; settings: Pseudomonas aeruginosa, 1388302; CIP R, POL R
[1] = test system: Acinetobacter spp. H064200250; assay: MIC determination for Acinetobacter strains (Example 3); type: cell-based, Acinetobacter sp.; settings: LEV R, CIP R, MRP R, IMP I
A. baumannii A 401 = assay: as above; type: cell-based; settings: A401, LEV R, CIP R, AMK R, TET R
A. baumannii A472 [2] = assay: as above; type: cell-based; settings: LEV R, CIP R, MRP I, IMP I, AMK R, TET R
[3] = test system: resistant strains of A. baumannii and one strain of Acinetobacter sp.; assay: MIC without and with sub-inhibitory polymyxin B, whole panel / MIC ranges (Example 4; also strains not listed separately); type: cell-based; settings: for MIC: Acinetobacter baumannii
A. baumannii ATCC 19606 = assay: MIC without and with sub-inhibitory polymyxin B (Example 4); type: cell-based, Acinetobacter baumannii; settings: Acinetobacter baumannii
A. baumannii J2 = assay: as above; type: cell-based, Acinetobacter baumannii; settings: Acinetobacter baumannii, J2, A. baumannii J2, without polymyxin B, read-out: MIC without PB
[4] = test system: Acinetobacter sp. (H064200250); assay: as above; type: cell-based; settings: Acinetobacter, without polymyxin B
A. baumannii A401 [5] = assay: as above; type: cell-based, Acinetobacter baumannii; settings: for MIC: Acinetobacter baumannii, A401, A baumannii A 401, without polymyxin B, read-out: MIC without PB
A. baumannii A472 [6] = assay: as above; type: cell-based, Acinetobacter baumannii; settings: for MIC: Acinetobacter baumannii, A472, A. baumannii A472, without polymyxin B, read-out: MIC without PB
A. baumannii A473 [7] = assay: as above; type: cell-based, Acinetobacter baumannii; settings: Acinetobacter baumannii, A473, A. baumannii A473, without polymyxin B, read-out: MIC without PB
A. baumannii A489 [8] = assay: as above; type: cell-based, Acinetobacter baumannii; settings: Acinetobacter baumannii, A489, A. baumannii A489, without polymyxin B, read-out: MIC without PB
[9] = test system: Acinetobacter sp. (H064200250); assay: Preliminary MBC without and with sub-inhibitory polymyxin B (Example 4); type: cell-based; settings: Acinetobacter, without polymyxin B, preliminary MBC, read-out: MBC without PB
In short: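 Incubation 18-20 h, 37° C. MBC = lowest conc. with ~90% fewer colonies than positive control (single/no colonies).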

A. baumannii A390 = assay: as above; type: cell-based, Acinetobacter baumannii; settings: Acinetobacter baumannii, A390, A. baumannii A390, without polymyxin B, preliminary MBC, read-out: MBC without PB
A. baumannii A401 [10] = assay: as above; type: cell-based, Acinetobacter baumannii; settings: Acinetobacter baumannii, A401, A baumannii A 401, without polymyxin B, preliminary MBC, read-out: MBC without PB
A. baumannii A472 [11] = assay: as above; type: cell-based, Acinetobacter baumannii; settings: Acinetobacter baumannii, A472, A. baumannii A472, without polymyxin B, read-out: MBC without PB
A. baumannii A473 [12] = assay: as above; type: cell-based, Acinetobacter baumannii; settings: Acinetobacter baumannii, A473, A. baumannii A473, without polymyxin B, read-out: MBC without PB
A. baumannii A489 [13] = assay: as above; type: cell-based, Acinetobacter baumannii; settings: Acinetobacter baumannii, A489, A. baumannii A489, without polymyxin B, read-out: MBC without PB
A. baumannii A329 [14] = assay: MIC determination for Acinetobacter strains (Example 3); type: cell-based; settings: LEV R, CIP R, MRP R, IMP R, AMK R, TET R
A. baumannii A329 [15] = assay: MIC without and with sub-inhibitory polymyxin B (Example 4); type: cell-based, Acinetobacter baumannii; settings: Acinetobacter baumannii, A329, A. baumannii A329, without polymyxin B, read-out: MIC without PB
A. baumannii A329 [16] = assay: Preliminary MBC without and with sub-inhibitory polymyxin B (Example 4); type: cell-based, Acinetobacter baumannii; settings: Acinetobacter baumannii, A329, A. baumannii A329, without polymyxin B, read-out: MBC without PB
[17] = A. baumannii A14, without polymyxin B, 1st experiment, read-out: MIC without PB
[18] = read-out: MIC range without PB 01-10-2008 n = 8, without polymyxin B, 1st experiment, 8 strains
[19] = without polymyxin B, 2nd experiment, 11 strains, read-out: MIC range without PB 14-10-2008 n = 11
[20] = ATCC19606, A. baumannii ATCC 19606, without polymyxin B, 2nd experiment, visual reading, read-out: MIC without PB
[21] = Acinetobacter spp. H064200250 (OXA51), 2nd experiment, visual reading, read-out: MIC without PB
[22] = Acinetobacter spp. H064200250, 1st experiment, read-out: MIC without PB
[23] = Acinetobacter spp. H064200250 (OXA51), 2nd experiment
[24] = Acinetobacter spp. H064200250, 1st experiment
[25] = ATCC19606, A. baumannii ATCC 19606, without polymyxin B, 1st experiment, read-out: MIC without PB

SMILES	MIC (E. coli CTX-M-15) [mg/L]	MIC (E. coli 2906) [mg/L]	MIC (Pseudomonas ssp PER-1) [mg/L]	MIC (P. aeruginosa 1388-3-02) [mg/L]	MIC [1] [mg/L]	MIC (A. baumannii A 401) [mg/L]	MIC (A. baumannii A472 [2]) [mg/L]	MIC [3, 17] [mg/L]	MIC [3, 18] [mg/L]	MIC [3, 19] [mg/L]	MIC (A. baumannii ATCC 19606; [20]) [mg/L]	MIC (A. baumannii J2; 2nd experiment, visual reading) [mg/L]	MIC [4, 21] [mg/L]	MIC [4, 22] [mg/L]	MIC (A. baumannii A401 [5]; 1st experiment) [mg/L]	MIC (A. baumannii A401 [5]; 2nd experiment, visual reading) [mg/L]	MIC (A. baumannii A489 [8]; 2nd experiment, visual reading) [mg/L]	MBC [9, 23] [mg/L]	MBC [9, 24] [mg/L]	MBC (A. baumannii A489 [13]; 1st experiment) [mg/L]	further results
Cc1c(-c2ccc(N)cc2)c(F)cn2c(=O)c(C(=O)O)cc(C3CC3)c12 [Compound 7, 8-(4-amino-phenyl)-1-cyclopropyl-7-fluoro-9-methyl-4-oxo-quinolizine-3-carboxylic acid]	32 (≈ 90.8 µM)	32 (≈ 90.8 µM)	16 (≈ 45.4 µM)	16 (≈ 45.4 µM)	8 (≈ 22.7 µM)	4 (≈ 11.4 µM)	4 (≈ 11.4 µM)	32 (≈ 90.8 µM)	2 to 32 (≈ 5.68 to 90.8 µM)	2 to 16 (≈ 5.68 to 45.4 µM)	0.25 (≈ 0.709 µM)	4 (≈ 11.4 µM)	16 (≈ 45.4 µM)	8 (≈ 22.7 µM)	4 (≈ 11.4 µM)	8 (≈ 22.7 µM)	8 (≈ 22.7 µM)	8 (≈ 22.7 µM)	4 (≈ 11.4 µM)	4 (≈ 11.4 µM)	MIC ([4]; Acinetobacter spp. H064200250 (OXA51), 2nd experiment, MIC read with alamar blue, read-out: MIC without PB, read with alamar blue): 8 mg/L (≈ 22.7 µM); MIC ratio without/with polymyxin B (A. baumannii A472 [6]; A. baumannii A472, ratio MIC without PB to MIC + PB, PB […], 2nd experiment): ≥ 256 mg/L; MIC (A. baumannii A472 [6]; 1st experiment): 4 mg/L (≈ 11.4 µM); MIC (A. baumannii A472 [6]; 2nd experiment, visual reading): 8 mg/L (≈ 22.7 µM); MIC (A. baumannii A473 [7]; 1st experiment): 4 mg/L (≈ 11.4 µM); MIC (A. baumannii A473 [7]; 2nd experiment, visual reading): 4 mg/L (≈ 11.4 µM); MIC (A. baumannii A489 [8]; 1st experiment): 8 mg/L (≈ 22.7 µM); MBC (A. baumannii A390; 1st experiment): 4 mg/L (≈ 11.4 µM); MBC (A. baumannii A401 [10]; 2nd experiment): 8 mg/L (≈ 22.7 µM); MBC (A. baumannii A401 [10]; 1st experiment): 4 mg/L (≈ 11.4 µM); MBC (A. baumannii A472 [11]; 1st experiment): 4 mg/L (≈ 11.4 µM); MBC (A. baumannii A472 [11]; 2nd experiment): 8 mg/L (≈ 22.7 µM); MBC (A. baumannii A473 [12]; 1st experiment): 4 mg/L (≈ 11.4 µM); MBC (A. baumannii A473 [12]; 2nd experiment): 4 mg/L (≈ 11.4 µM)
Cc1c(-c2ccc(N)c(F)c2)ccn2c(=O)c(C(=O)O)cc(C3CC3)c12 [Compound 1, 8-(3-fluoro-4-amino-phenyl)-1-cyclopropyl-9-methyl-4-oxo-quinolizine-3-carboxylic acid]	–	–	–	–	8 (≈ 22.7 µM)	4 (≈ 11.4 µM)	8 (≈ 22.7 µM)	–	1 to 32 (≈ 2.84 to 90.8 µM)	4 to 32 (≈ 11.4 to 90.8 µM)	0.25 (≈ 0.709 µM)	16 (≈ 45.4 µM)	16 (≈ 45.4 µM)	8 (≈ 22.7 µM)	4 (≈ 11.4 µM)	16 (≈ 45.4 µM)	16 (≈ 45.4 µM)	32 (≈ 90.8 µM)	8 (≈ 22.7 µM)	8 (≈ 22.7 µM)	MIC (A. baumannii A329 [14]): 16 mg/L (≈ 45.4 µM); MIC (A. baumannii ATCC 19606; [25]): 0.25 mg/L (≈ 0.709 µM); MIC (A. baumannii J2; 1st experiment): 8 mg/L (≈ 22.7 µM); MIC (A. baumannii A329 [15]; 1st experiment): 16 mg/L (≈ 45.4 µM); MIC (A. baumannii A329 [15]; 2nd experiment, visual reading): 16 mg/L (≈ 45.4 µM); MIC ratio without/with polymyxin B (A. baumannii A401 [5]; A baumannii A 401, ratio MIC without PB to MIC + PB, PB 0.06 μg/ml, 2nd experiment): ≥ 512 mg/L; MIC (A. baumannii A472 [6]; 1st experiment): 8 mg/L (≈ 22.7 µM); MIC (A. baumannii A472 [6]; 2nd experiment, visual reading): 8 mg/L (≈ 22.7 µM); MIC (A. baumannii A473 [7]; 1st experiment): 4 mg/L (≈ 11.4 µM); MIC (A. baumannii A473 [7]; 2nd experiment, visual reading): 8 mg/L (≈ 22.7 µM); MIC (A. baumannii A489 [8]; 1st experiment): 4 mg/L (≈ 11.4 µM); MBC (A. baumannii A329 [16]; 1st experiment): 16 mg/L (≈ 45.4 µM); MBC (A. baumannii A390; 2nd experiment): 16 mg/L (≈ 45.4 µM); MBC (A. baumannii A390; 1st experiment): 16 mg/L (≈ 45.4 µM); MBC (A. baumannii A401 [10]; 2nd experiment): 8 mg/L (≈ 22.7 µM); MBC (A. baumannii A401 [10]; 1st experiment): 16 mg/L (≈ 45.4 µM); MBC (A. baumannii A472 [11]; 1st experiment): 8 mg/L (≈ 22.7 µM); MBC (A. baumannii A473 [12]; 1st experiment): 4 mg/L (≈ 11.4 µM); MBC (A. baumannii A473 [12]; 2nd experiment): 8 mg/L (≈ 22.7 µM); MBC (A. baumannii A489 [13]; 2nd experiment): 16 mg/L (≈ 45.4 µM)
C[C@H]1COc2c(N3CCN(C)CC3)c(F)cc3c(=O)c(C(=O)O)cn1c23 [Levofloxacin, reference compound]	16 (≈ 44.3 µM)	32 (≈ 88.6 µM)	32 (≈ 88.6 µM)	32 (≈ 88.6 µM)	16 (≈ 44.3 µM)	–	–	32 (≈ 88.6 µM)	8 to 32 (≈ 22.1 to 88.6 µM)	4 to 32 (≈ 11.1 to 88.6 µM)	1 (≈ 2.77 µM)	32 (≈ 88.6 µM)	16 (≈ 44.3 µM)	16 (≈ 44.3 µM)	–	–	32 (≈ 88.6 µM)	16 (≈ 44.3 µM)	16 (≈ 44.3 µM)	32 (≈ 88.6 µM)	MIC (A. baumannii A329 [14]): 32 mg/L (≈ 88.6 µM); fold greater activity (fold lower MIC) in presence of polymyxin B compared to without polymyxin B [3]: not significantly affected; MIC ([3]; A. baumannii A14, without polymyxin B, 2nd experiment, visual reading, read-out: MIC without PB): 32 mg/L (≈ 88.6 µM); MIC ([3]; NCTC13301, A. baumannii NCTC 13301, without polymyxin B, 1st experiment, read-out: MIC without PB): 32 mg/L (≈ 88.6 µM); MIC ([3]; NCTC13301, A. baumannii NCTC 13301, without polymyxin B, 2nd experiment, visual reading, read-out: MIC without PB): 32 mg/L (≈ 88.6 µM); MIC (A. baumannii ATCC 19606; [25]): 1 mg/L (≈ 2.77 µM); MIC (A. baumannii ATCC 19606; ATCC19606, read-out: MIC +0.06 μg/ml PB, read with alamar blue, A. baumannii ATCC 19606, +0.06 μg/ml polymyxin B, 2nd experiment, MIC read with alamar blue): 0.5 mg/L; MIC (A. baumannii J2; 1st experiment): 32 mg/L (≈ 88.6 µM); MIC (A. baumannii A329 [15]; 1st experiment): 32 mg/L (≈ 88.6 µM); MBC (A. baumannii A329 [16]; 1st experiment): 32 mg/L (≈ 88.6 µM); MBC (A. baumannii A329 [16]; 2nd experiment): 32 mg/L (≈ 88.6 µM)
